Test results published in paper PMC3781056, “New Pyrazolopyrimidine Inhibitors of Protein Kinase D as Potent Anticancer Agents for Prostate Cancer Cells” (PLoS ONE, 2013).
Counter-ions that a name gives are not always drawn. Like-named read-outs stand apart in the source and are kept apart here.

Assays:
[1] = molecular target: T1, PKD1 (Homo sapiens, UniProt Q15139); experiment: In vitro radiometric PKD1 screening assay at 1 µM; format: biochemical; settings: for PKD1 inhibitory activity, SAR result in words: SAR of synthesized 1-NA-PP1 analogs
T1 construct: GST; purchased Enzo Life sciences (Farmingdale, NY)
T1 sequence (Q15139 1-912): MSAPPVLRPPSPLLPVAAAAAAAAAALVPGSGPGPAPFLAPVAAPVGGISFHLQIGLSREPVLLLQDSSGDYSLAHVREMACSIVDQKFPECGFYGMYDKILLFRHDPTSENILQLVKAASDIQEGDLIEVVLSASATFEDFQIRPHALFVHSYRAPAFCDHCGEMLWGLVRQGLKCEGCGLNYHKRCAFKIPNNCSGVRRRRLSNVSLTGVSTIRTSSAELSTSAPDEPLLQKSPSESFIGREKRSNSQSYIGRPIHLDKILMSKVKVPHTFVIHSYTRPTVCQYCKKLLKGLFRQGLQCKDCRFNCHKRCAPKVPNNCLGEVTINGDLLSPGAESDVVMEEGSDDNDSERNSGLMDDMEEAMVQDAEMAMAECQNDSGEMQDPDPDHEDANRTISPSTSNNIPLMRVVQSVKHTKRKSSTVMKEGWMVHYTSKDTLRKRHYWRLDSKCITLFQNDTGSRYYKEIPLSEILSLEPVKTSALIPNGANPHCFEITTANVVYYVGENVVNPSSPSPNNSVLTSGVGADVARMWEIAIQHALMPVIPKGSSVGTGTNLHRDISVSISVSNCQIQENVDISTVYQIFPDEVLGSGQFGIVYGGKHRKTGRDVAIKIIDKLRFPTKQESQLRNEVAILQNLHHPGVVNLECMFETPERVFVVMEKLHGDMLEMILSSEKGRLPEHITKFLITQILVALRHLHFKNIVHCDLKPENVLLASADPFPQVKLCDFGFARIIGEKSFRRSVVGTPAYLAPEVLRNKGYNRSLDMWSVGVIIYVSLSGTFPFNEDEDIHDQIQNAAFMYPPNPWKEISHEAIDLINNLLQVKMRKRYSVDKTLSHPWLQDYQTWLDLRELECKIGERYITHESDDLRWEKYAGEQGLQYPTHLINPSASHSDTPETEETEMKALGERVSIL
Method: Phosphorylation of HDAC5 was detected in a kinase reaction having 1 µCi [γ-^32P] […] The reaction was incubated at 30°C for 10 minutes and 25 µL of the reaction was spotted on Whatman P81 filter paper. The filter paper was washed 3 times in 0.5% phosphoric acid, air dried and counted using Beckman LS6500 multipurpose scintillation counter. Percent PKD1 inhibition was graphed using GraphPad Prism software 5.0.

[2] = molecular target: T2, PKCα (Homo sapiens, UniProt P17252); experiment: In vitro radiometric PKC kinase assay; format: biochemical; settings: 0.1, 1 and 10 µM
T2 construct: purchased SignalChem (Richmond, BC, Canada)
Method: (§1) The PKC kinase assay was carried out by co-incubating 1 µCi [γ-^32P]ATP, 20 µM ATP, 50 ng of purified PKCα or PKCδ and 5 µg of myelin basic protein 4–14, 0.25 mg/mL bovine serum albumin, 0.1 mg/mL phosphatidylcholine/phosphatidylserine (80/20%) (1 µM), 1 µM phorbol dibutyrate in 50 µL of kinase buffer containing 50 mM Tris-HCl, pH 7.5, 4 mM MgCl2 and 10 mM β-mercaptoethanol. For the CAMK assay, 50 ng of CAMKIIα and 2 µg syntide-2 substrate in 50 µL kinase buffer were incubated with 0.1 mM MgCl2, 1 µCi of [γ-^32P] ATP, 70 µM ATP. 0.5 mM CaCl2 and 30 ng/µL calmodulin were preincubated for 15 min on ice and then added in the kinase reaction. The reactions were incubated at 30°C for 10 min and 25 µL of the reaction was spotted on Whatman P81 filter paper. The filter paper was washed 3 times in 0.5% phosphoric acid, air dried and counted using Beckman LS6500 multipurpose scintillation counter.

[3] = molecular target: T3, PKCδ (Homo sapiens, UniProt Q05655); experiment: In vitro radiometric PKC kinase assay; format: biochemical; settings: 0.1, 1 and 10 µM
T3 construct: purchased SignalChem (Richmond, BC, Canada)
T3 sequence (Q05655 whole entry): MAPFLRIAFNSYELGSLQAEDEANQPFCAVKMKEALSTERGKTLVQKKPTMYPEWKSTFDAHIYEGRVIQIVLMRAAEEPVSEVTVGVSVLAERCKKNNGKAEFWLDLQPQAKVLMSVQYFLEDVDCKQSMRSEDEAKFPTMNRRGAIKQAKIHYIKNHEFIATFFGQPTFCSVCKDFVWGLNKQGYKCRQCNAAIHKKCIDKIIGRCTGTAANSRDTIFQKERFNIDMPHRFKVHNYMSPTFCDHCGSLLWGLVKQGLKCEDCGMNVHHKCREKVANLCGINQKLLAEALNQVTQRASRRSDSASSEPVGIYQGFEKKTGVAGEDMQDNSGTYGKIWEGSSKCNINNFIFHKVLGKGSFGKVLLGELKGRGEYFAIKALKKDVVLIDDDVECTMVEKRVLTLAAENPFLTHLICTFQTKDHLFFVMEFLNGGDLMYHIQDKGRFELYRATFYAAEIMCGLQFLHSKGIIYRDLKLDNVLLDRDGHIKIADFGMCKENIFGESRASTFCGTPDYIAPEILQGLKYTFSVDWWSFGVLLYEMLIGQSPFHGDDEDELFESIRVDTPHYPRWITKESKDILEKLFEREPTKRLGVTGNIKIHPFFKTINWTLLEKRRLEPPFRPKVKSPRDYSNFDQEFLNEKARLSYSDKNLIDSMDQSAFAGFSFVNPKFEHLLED
Method: as §1

[4] = 1 µM, targeted kinase inhibitor library screen, relative to DMSO
[5] = 1 µM, targeted kinase inhibitor library screen, relative to DMSO, read-out: % PKD1 Inhibition

Compound	melting point [°C]	% PKD1 Inhibition [1, 4] [%]	further results
COc1ccc(-c2nn(C)c3nc(Cl)nc(N)c23)cc1 [Compound 1j, 6-Chloro-3-(4-methoxyphenyl)-1-methyl-1H-pyrazolo[3,4-d]pyrimidin-4-amine]	> 250	–	PKD1 inhibitory activity, SAR result in words [1]: did not show an increase in potency
Fc1ccc(Cl)cc1-c1nc(Nc2ccncc2)c2nccnc2n1 [SD 208]	–	74	–
Cn1nc(-c2cccc3ccccc23)c2c(N)ncnc21 [Compound 1f, 1-Methyl-3-(naphthalen-1-yl)-1H-pyrazolo[3,4-d]pyrimidin-4-amine]	–	–	inhibition at 1 µM ([1]; read-out: inhibition of PKD1 activity): 32%
CNc1ncnc2c1c(-c1cccc3ccccc13)nn2C(C)(C)C [Compound 1a, 1-(t-Butyl)-N-methyl-3-(naphthalen-1-yl)-1H-pyrazolo[3,4-d]pyrimidin-4-amine]	152.4 to 156.3	–	PKD1 inhibitory activity, SAR result in words [1]: ablated the PKD1 activity
Oc1c2ccccc2c2c3c(cccc13)N=N2 [SP 600125]	–	–	inhibition at 1 µM [1, 5]: 74%
O=C1Nc2cc(Br)ccc2/C1=C1/Nc2ccccc2/C1=N\O [BIO]	–	47	–
CNc1nc(Cl)nc2c1c(-c1ccc(OC)cc1)nn2C [Compound 1k, 6-Chloro-3-(4-methoxyphenyl)-N,1-dimethyl-1H-pyrazolo[3,4-d]pyrimidin-4-amine]	159.3 to 160.9	–	PKD1 inhibitory activity, SAR result in words [1]: did not show an increase in potency
O=C1NC(=O)c2c1c1c3ccccc3n3c1c1c2c2ccccc2n1C1CCC3O1 [SB 218078]	–	85	–
CNc1nc(Cl)nc2c1c(-c1ccc(OC(F)(F)F)cc1)nn2C [Compound 1m, 6-Chloro-N,1-dimethyl-3-(4-(trifluoromethoxy)phenyl)-1H-pyrazolo[3,4-d]pyrimidin-4-amine]	–	–	PKD1 inhibitory activity, SAR result in words [1]: did not show an increase in potency
O=C1NC(=O)c2c1c1c3ccccc3[nH]c1c1[nH]c3ccccc3c21 [Arcyriaflavin A]	–	75	–
NC(=O)c1ccc(-c2nc(-c3ccc4c(c3)OCCO4)c(-c3ccccn3)[nH]2)cc1 [D 4476]	–	45	–
Cl.Cl.O=S(=O)(NCCNC/C=C/c1ccc(Br)cc1)c1cccc2cnccc12 [H 89 Dihydrochloride]	–	66	–
CNc1ncnc2c1c(-c1ccc(-c3ccccc3)cc1)nn2C [Compound 1p, 3-([1,1'-Biphenyl]-4-yl)-N,1-dimethyl-1H-pyrazolo[3,4-d]pyrimidin-4-amine]	–	–	PKD1 inhibitory activity, SAR result in words [1]: did not show an increase in potency
CNc1ncnc2c1c(-c1ccc(OC)cc1)nn2C(C)(C)C [Compound 1c, 1-(t-Butyl)-3-(4-methoxyphenyl)-N-methyl-1H-pyrazolo[3,4-d]pyrimidin-4-amine]	89.3 to 91.2	–	–
CNc1nc(Cl)nc2c1c(-c1ccc(F)cc1)nn2C [Compound 1o, 6-Chloro-3-(4-fluorophenyl)-N,1-dimethyl-1H-pyrazolo[3,4-d]pyrimidin-4-amine]	189.9 to 192.3	–	–
CS(=O)(=O)O.Cn1cc(C2=C(c3cn(CCCSC(=N)N)c4ccccc34)C(=O)NC2=O)c2ccccc21 [Ro 31-8220 Mesylate]	–	72	–
CN(C)CCCn1cc(C2=C(c3c[nH]c4ccccc34)C(=O)NC2=O)c2ccccc21 [GF109203X, reference compound]	–	–	inhibition of PKCα, in words [2]: potently and concentration-dependently inhibited; inhibition of PKCδ, in words [3]: potently and concentration-dependently inhibited
O=S(=O)(c1cccc2cnccc12)N1CCCNCC1 [Fasudil hydrochloride]	–	–	inhibition at 1 µM [1, 5]: 41%
Cc1ccccc1C(=O)c1ccc(Nc2ccc(Br)cc2N)cc1Cl [EO 1428]	–	68	–
COc1ccc(-c2nn(C)c3ncnc(N)c23)cc1 [Compound 1h, 3-(4-Methoxyphenyl)-1-methyl-1H-pyrazolo[3,4-d]pyrimidin-4-amine]	185 to 188	–	–
